Test results from PMC11637875, “Discovery of novel PARP1/NRP1 dual-targeting inhibitors with strong antitumor potency” (Frontiers in Pharmacology, 2024).

Columns and labels:
Assay type in all cases: biochemical
ABL1 = ABL1 (Homo sapiens, UniProt P00519); assay: Selectivity profile (123 kinase panel)
AKT1 = AKT1 (Homo sapiens, UniProt P31749); assay: Selectivity profile (123 kinase panel)
ALK6 = ALK6 (Homo sapiens, UniProt O00238); assay: Selectivity profile (123 kinase panel)
AMPKα2/β1/γ1 = AMPKα2/β1/γ1 (Homo sapiens, UniProt P54619+P54646+Q9Y478); assay: Selectivity profile (123 kinase panel)
BLK = BLK (Homo sapiens, UniProt P51451); assay: Selectivity profile (123 kinase panel)
BMX = BMX (Homo sapiens, UniProt P51813); assay: Selectivity profile (123 kinase panel)
BTK = BTK (Homo sapiens, UniProt Q06187); assay: Selectivity profile (123 kinase panel)
CLK1 = CLK1 (Homo sapiens, UniProt P49759); assay: Selectivity profile (123 kinase panel)
CRAF = CRAF (Homo sapiens, UniProt P04049, Y340D/Y341D); assay: Selectivity profile (123 kinase panel)
CHK1 = CHK1 (Homo sapiens, UniProt O14757); assay: Selectivity profile (123 kinase panel)
CK1γ1 = CK1γ1 (Homo sapiens, UniProt Q9HCP0); assay: Selectivity profile (123 kinase panel)
CK1γ2 = CK1γ2 (Homo sapiens, UniProt P78368); assay: Selectivity profile (123 kinase panel)
CK1γ3 = CK1γ3 (Homo sapiens, UniProt Q9Y6M4); assay: Selectivity profile (123 kinase panel)
CK1ε = CK1ε (Homo sapiens, UniProt P49674); assay: Selectivity profile (123 kinase panel)
DCAMKL2 = DCAMKL2 (Homo sapiens, UniProt Q8N568); assay: Selectivity profile (123 kinase panel)
DNA-PK = DNA-PK (Homo sapiens, UniProt P78527); assay: Selectivity profile (123 kinase panel)
DYRK1A = DYRK1A (Homo sapiens, UniProt Q13627); assay: Selectivity profile (123 kinase panel)
DYRK1B = DYRK1B (Homo sapiens, UniProt Q9Y463); assay: Selectivity profile (123 kinase panel)
DYRK4 = DYRK4 (Homo sapiens, UniProt Q9NR20); assay: Selectivity profile (123 kinase panel)
EPHA4 = EPHA4 (Homo sapiens, UniProt P54764); assay: Selectivity profile (123 kinase panel)
EPHA5 = EPHA5 (Homo sapiens, UniProt P54756); assay: Selectivity profile (123 kinase panel)
EPHA8 = EPHA8 (Homo sapiens, UniProt P29322); assay: Selectivity profile (123 kinase panel)
Erk7 = Erk7 (Homo sapiens, UniProt Q8TD08); assay: Selectivity profile (123 kinase panel)
FAK = FAK (Homo sapiens, UniProt Q05397); assay: Selectivity profile (123 kinase panel)
FGFR1 = FGFR1 (Homo sapiens, UniProt P11362); assay: Selectivity profile (123 kinase panel)
FLT3 = FLT3 (Homo sapiens, UniProt P36888); assay: Selectivity profile (123 kinase panel)
GLK = GLK (Homo sapiens, UniProt Q8IVH8); assay: Selectivity profile (123 kinase panel)
HCK = HCK (Homo sapiens, UniProt P08631); assay: Selectivity profile (123 kinase panel)
HIPK2 = HIPK2 (Homo sapiens, UniProt Q9H2X6); assay: Selectivity profile (123 kinase panel)
HIPK3 = HIPK3 (Homo sapiens, UniProt Q9H422); assay: Selectivity profile (123 kinase panel)
IGF1R = IGF1R (Homo sapiens, UniProt P08069); assay: Selectivity profile (123 kinase panel)
INSR = INSR (Homo sapiens, UniProt P06213); assay: Selectivity profile (123 kinase panel)
ITK = ITK (Homo sapiens, UniProt Q08881); assay: Selectivity profile (123 kinase panel)
JNK1 = JNK1 (Homo sapiens, UniProt P45983); assay: Selectivity profile (123 kinase panel)
LOK = LOK (Homo sapiens, UniProt O94804); assay: Selectivity profile (123 kinase panel)
MARK1 = MARK1 (Homo sapiens, UniProt Q9P0L2); assay: Selectivity profile (123 kinase panel)
MRCKβ = MRCKβ (Homo sapiens, UniProt Q9Y5S2); assay: Selectivity profile (123 kinase panel)
MSK1 = MSK1 (Homo sapiens, UniProt O75582); assay: Selectivity profile (123 kinase panel)
PARP13 = PARP13 (Homo sapiens, UniProt Q7Z2W4); assay: Selectivity profile (other isoforms of PARP and NRP family)
NRP2 = NRP2 (Homo sapiens, UniProt O60462); assay: as above

Measured: IC50

Sequence of CRAF (P04049 306-648 Y340D/Y341D limits assumed): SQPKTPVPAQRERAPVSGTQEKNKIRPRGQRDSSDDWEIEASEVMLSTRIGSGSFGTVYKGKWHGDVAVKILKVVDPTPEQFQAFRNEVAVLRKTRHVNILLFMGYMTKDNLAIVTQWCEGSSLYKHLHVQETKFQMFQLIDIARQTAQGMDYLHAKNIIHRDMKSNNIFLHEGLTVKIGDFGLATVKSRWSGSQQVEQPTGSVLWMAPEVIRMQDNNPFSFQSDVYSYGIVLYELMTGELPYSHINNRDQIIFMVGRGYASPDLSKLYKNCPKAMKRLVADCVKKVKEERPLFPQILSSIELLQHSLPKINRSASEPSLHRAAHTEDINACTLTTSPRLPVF
Sequence of CK1ε (P49674 whole entry): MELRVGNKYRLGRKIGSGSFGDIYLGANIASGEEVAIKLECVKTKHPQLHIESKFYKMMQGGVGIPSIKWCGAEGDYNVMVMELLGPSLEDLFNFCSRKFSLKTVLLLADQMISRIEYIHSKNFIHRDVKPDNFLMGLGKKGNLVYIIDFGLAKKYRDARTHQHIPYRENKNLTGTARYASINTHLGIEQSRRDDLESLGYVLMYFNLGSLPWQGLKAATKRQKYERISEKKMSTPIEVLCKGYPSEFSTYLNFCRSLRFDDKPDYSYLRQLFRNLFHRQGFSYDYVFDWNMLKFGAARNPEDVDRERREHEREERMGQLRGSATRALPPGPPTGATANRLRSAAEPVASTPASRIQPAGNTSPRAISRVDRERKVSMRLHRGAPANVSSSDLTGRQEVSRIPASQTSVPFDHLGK
Sequence of AKT1 (P31749 whole entry): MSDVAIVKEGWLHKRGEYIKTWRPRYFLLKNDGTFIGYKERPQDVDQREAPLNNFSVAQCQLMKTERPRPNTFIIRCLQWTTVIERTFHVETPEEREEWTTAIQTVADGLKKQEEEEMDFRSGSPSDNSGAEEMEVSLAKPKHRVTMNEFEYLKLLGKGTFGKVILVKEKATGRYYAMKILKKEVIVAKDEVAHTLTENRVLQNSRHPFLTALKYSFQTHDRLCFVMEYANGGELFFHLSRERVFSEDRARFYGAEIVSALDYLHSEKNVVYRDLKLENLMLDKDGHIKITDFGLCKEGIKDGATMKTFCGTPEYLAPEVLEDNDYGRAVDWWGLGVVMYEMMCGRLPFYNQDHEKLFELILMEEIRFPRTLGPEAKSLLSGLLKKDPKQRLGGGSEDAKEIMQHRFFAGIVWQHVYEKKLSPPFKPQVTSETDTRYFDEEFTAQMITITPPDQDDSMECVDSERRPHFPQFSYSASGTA
Sequence of LOK (O94804 whole entry): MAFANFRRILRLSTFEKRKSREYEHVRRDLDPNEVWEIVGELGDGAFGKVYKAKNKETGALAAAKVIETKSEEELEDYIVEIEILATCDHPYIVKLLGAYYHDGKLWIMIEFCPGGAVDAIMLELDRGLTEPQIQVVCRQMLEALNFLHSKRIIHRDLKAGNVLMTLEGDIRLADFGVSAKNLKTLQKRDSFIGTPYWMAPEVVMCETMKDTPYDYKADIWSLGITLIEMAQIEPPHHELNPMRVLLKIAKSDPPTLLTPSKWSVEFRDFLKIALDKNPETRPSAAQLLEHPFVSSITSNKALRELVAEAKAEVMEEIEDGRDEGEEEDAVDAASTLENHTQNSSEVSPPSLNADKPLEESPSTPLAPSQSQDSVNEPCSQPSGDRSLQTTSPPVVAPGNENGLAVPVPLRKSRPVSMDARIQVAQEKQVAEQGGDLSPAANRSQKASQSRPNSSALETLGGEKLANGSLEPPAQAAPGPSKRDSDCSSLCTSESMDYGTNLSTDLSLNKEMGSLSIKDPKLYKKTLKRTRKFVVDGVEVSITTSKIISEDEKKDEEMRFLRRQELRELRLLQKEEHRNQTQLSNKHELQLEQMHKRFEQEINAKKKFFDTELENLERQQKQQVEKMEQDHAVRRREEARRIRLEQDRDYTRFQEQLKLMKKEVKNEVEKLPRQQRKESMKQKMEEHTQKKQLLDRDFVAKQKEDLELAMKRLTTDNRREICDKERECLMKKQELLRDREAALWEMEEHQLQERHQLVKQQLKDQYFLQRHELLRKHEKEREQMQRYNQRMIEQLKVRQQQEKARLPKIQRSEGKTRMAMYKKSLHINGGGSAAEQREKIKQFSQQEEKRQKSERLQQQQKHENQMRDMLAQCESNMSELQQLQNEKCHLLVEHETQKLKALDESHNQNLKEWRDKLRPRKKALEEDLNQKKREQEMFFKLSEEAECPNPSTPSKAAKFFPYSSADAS
Sequence of CLK1 (P49759 whole entry): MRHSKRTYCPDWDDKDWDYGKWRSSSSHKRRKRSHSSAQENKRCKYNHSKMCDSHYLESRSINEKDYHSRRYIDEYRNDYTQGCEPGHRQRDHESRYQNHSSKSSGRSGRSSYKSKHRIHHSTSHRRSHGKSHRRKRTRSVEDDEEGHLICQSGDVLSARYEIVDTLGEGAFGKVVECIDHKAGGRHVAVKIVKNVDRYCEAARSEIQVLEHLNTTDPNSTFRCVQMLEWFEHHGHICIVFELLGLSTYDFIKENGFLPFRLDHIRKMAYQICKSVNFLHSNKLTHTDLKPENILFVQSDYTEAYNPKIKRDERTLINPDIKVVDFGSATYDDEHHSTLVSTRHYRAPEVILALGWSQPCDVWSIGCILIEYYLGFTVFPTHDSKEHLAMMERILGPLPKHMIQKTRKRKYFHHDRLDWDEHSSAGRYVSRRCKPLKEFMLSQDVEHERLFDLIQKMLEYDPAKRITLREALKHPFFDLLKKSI
Sequence of INSR (P06213 28-1382): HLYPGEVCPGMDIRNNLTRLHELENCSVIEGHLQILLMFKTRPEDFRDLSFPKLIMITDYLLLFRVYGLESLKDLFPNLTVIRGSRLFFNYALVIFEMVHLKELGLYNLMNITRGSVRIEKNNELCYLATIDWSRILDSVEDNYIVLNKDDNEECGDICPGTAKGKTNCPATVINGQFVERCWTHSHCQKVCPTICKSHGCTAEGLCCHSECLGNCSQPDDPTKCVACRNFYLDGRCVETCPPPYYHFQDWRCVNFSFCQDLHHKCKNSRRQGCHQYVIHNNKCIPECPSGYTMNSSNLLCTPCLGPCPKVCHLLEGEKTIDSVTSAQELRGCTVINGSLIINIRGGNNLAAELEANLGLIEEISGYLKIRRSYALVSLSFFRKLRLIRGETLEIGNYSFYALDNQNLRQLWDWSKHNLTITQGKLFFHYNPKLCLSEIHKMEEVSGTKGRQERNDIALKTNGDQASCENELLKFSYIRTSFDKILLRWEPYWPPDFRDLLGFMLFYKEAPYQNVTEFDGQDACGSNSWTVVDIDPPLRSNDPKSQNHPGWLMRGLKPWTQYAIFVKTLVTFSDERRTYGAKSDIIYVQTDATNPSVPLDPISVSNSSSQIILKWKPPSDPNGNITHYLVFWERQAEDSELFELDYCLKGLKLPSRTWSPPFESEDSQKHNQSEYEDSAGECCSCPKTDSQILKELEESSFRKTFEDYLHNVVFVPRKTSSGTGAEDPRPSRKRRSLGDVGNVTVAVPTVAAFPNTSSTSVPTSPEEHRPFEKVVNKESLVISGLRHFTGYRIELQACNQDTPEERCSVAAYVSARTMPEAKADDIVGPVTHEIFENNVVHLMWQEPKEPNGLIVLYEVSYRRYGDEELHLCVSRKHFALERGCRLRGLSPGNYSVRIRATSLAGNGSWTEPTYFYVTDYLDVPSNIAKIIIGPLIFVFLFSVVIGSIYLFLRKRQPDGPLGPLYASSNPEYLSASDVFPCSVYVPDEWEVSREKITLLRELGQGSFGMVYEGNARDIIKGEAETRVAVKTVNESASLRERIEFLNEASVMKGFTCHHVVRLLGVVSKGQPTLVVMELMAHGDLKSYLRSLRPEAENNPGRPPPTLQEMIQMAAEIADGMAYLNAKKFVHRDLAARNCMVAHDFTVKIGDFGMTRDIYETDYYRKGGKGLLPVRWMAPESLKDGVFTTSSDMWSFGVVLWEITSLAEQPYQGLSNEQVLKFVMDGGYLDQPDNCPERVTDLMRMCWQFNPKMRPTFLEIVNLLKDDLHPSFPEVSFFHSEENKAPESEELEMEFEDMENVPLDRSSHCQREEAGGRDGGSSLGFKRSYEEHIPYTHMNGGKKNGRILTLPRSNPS
Sequence of CK1γ3 (Q9Y6M4 whole entry): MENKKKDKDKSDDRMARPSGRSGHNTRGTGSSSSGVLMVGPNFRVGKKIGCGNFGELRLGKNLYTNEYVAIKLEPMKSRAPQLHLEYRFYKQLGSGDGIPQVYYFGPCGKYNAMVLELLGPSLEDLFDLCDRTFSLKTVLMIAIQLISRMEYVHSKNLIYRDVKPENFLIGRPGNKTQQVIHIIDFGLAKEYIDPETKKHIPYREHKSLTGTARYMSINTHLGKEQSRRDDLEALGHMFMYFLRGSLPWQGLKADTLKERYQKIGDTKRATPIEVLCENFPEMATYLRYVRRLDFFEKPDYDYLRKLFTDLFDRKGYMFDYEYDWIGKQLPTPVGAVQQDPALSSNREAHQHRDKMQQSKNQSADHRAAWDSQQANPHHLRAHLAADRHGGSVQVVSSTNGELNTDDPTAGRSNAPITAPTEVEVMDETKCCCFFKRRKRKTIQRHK
Sequence of CK1γ1 (Q9HCP0 whole entry): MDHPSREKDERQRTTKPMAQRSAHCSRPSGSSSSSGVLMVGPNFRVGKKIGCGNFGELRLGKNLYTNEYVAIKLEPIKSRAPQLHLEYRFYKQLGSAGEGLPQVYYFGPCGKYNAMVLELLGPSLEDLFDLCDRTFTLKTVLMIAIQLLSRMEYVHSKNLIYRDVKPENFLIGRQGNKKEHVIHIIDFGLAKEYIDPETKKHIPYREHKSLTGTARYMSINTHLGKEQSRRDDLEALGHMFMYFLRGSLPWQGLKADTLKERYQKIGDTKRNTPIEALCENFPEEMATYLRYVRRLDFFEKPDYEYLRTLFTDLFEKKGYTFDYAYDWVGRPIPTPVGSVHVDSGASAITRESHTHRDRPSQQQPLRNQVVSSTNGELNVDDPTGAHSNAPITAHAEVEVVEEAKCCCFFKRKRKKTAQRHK

NC(N)=NCCC[C@H](NCN1CCN(C(=O)c2cc(Cc3n[nH]c(=O)c4ccccc34)ccc2F)CC1)C(=O)O [PPNR-4]
> 10 µM: all assays above
